US20100292316A1, “IMPROVED THERAPEUTIC METHODS AND COMPOSITIONS COMPRISING CHROMAN RING COMPOUNDS” (Research Development Foundation, priority 2007, published 2010)

How the values were obtained:
TSP-1 = TSP-1 mRNA (RT-PCR) and protein (Western blot) levels in human breast cancer cells; assay type: cell-based; conditions: 40 μM α-TEA; for peak TSP-1 mRNA levels, fold of VEH control: 6 h
Method: (§1) Whole-cell protein extracts were prepared as described previously (Yu et al., 1999), and 50 μg of protein was loaded per lane, separated using SDS-PAGE on a 10-15% gel under reducing conditions, and electroblotted onto a nitrocellulose membrane ([…] Optitran BA-S-supported nitrocellulose; Schleicher and Schuell, Keene, N.H.). Equal loading was verified using GAPDH antibody. Primary rabbit antibodies with specificity for PARP and primary goat antibody with specificity for Arg were purchased from Santa Cruz Biotechnology (Santa Cruz, Calif.). Horseradish peroxidase conjugated goat anti-rabbit or horseradish goat anti-mouse secondary antibody was purchased from Jackson Immunoresearch Laboratory (West Grove, Pa.). Horseradish peroxidase-conjugated donkey anti-goat serum was purchased from Santa Cruz Biotechnology. Immune complexes were visualized using enhanced chemiluminescence detection (Pierce Chemical Co., Rockford, Ill.). Fold differences in level of chemiluminescence were determined by densitometric analyses.
Total RNA was isolated from cells using RNeasy Protect Mini kit (Qiagen, Valencia, Calif.) according to manufacturer's instruction. Reverse transcription was performed as described above except using 15 μg of total RNA as template. Polymerase chain reaction (PCR) with Arg primers 30 cycles in volumes of 50 μl according to the manufacturer's protocol (Taq PCR Master Mix Kit; Qiagen, Valencia, Calif.). Primers used in the analyses were: Arg, forward (5′-CAGTGATGCCTCCACCTCAA-3′; SEQ ID NO:2) and reverse (5′-TTTCCCTCTCCCCTCAGAAAT-3′; SEQ ID NO:3) and for β-actin (loading control), forward (5′-GGCGGCACCACCATGTACCCT-3′; SEQ ID NO:4) and reverse (5′-AGGGGCCGGACTCGTCATACT-3′; SEQ ID NO:5) (Invitrogen, Carlsbad, Calif.). The amplification reaction involved denaturation at 95° C. for 30 seconds, annealing at 52° C. for 30 seconds, and extension at 72° C. for 30 seconds (for Arg) using a PTC-225 thermal cycler (MJ Research, San Francisco, Calif.). The PCR products were resolved on 1% agarose gels and visualized by ethidium bromide staining.
Western blot analyses with a primary mouse antibody (Calbiochem (San Diego, Calif.)) was used to determine protein levels in treated versus untreated MDA-MB-435 and MCF-7 human breast cancer cells (FIG. 2B). […] 66c1-4-GFP cells are a mouse mammary tumor cell line originally derived from a spontaneous mammary tumor in a Balb/cfC3H mouse and later isolated as a 6-thioguanine-resistant clone. The cells were subsequently stably transfected with the enhanced GFP (Lawson et al., 2003). […] In MCF-7 cells, peak TSP-1 mRNA levels at 6 h were 1.3-fold of the VEH control and peak TSP-1 protein levels at 24 h were 2.4-fold of the VEH control. […]

LNCaP cells = assay: Apoptosis by DAPI staining, LNCaP; assay type: cell-based, human
Method: Cells were plated at 2×10^6 in 100 mm cell culture plates, cultured overnight and washed with serum free media before transfection. Plasmids (0.7 μg or 4.2 of μg) or empty vector (pcDNA3) were mixed with 50 μl or 300 μl serum free media and 4 μl or 24 μl PLUS reagent (Invitrogen, CA) and incubated for 15 min at room temperature. Next 2 μl or 12 μl of Lipofectamine reagent (Invitrogen, CA) in 50 μl or 300 μl serum free media were added and the mixture incubated for another 15 min before adding to the cells in 0.5 ml or 5 ml serum free media. Cells were incubated with transfection reagents for 3 h and the growth media containing 2×FBS was added to the cells. Transfected cells were cultured overnight before α-TEA treatment. Transfection efficiency was determined to be 70% using GFP expressing plasmid.
Assessment of apoptosis based on nuclear morphology using 4′, 6-diamidino-2-phenylindole dihydrochloride (DAPI; Boehringer Mannheim Corp. Indianapolis, Ind.) has been described previously (Yu et al., 2003; Israel et al., 2000). Briefly, 1.5×10^5/well LNCaP or PC-3-GFP cells were plated in 12-well tissue culture plates and cultured overnight to allow cells to attach. On the next day, cells were treated with various concentrations of α-TEA and incubated for various time periods. At the end of treatments, cells were collected, washed with PBS, stained with 25 μl of 2 μg/ml DAPI, and viewed under a fluorescent microscope (model ICM 405 with a model 487701 filter, Zeiss). Cells which contained clearly condensed chromatin or fragmented nuclei were scored as apoptotic cells. ≧500 cells were counted in each sample. Apoptotic data are presented as percentage of apoptotic cells±S.D. for three independent experiments.
FOXO1 siRNA used in the study was purchased from Santa Cruz (Santa Cruz, Calif.). […] Transfection of human prostate cancer cells with FOXO1 siRNA or negative control siRNA was performed in 100 mm cell culture dishes at a density of 2×10^6 cells/dish using Lipofectamine 2000 (Invitrogen, Carlsbad, Calif.) and 300 pmol of siRNA duplex, resulting in a final siRNA concentration of 30 nM. siRNA transfected cells were incubated for 48-72 h prior to α-TEA treatment.

PARP = PARP cleavage (p84) by Western blot, densitometry; assay type: cell-based, human; conditions: LNCaP, 40 μM α-TEA 15 h
Method: as §1
Primary mouse antibody specific for p73 was purchased from IMGENEX (San Diego, Calif.). Primary mouse antibody specific for caspase 8 was purchased from Cell Signaling Technology (Beverly, Mass.). Horseradish peroxidase conjugated goat anti-rabbit or goat anti-mouse secondary antibodies were purchased from Jackson Immunoresearch Laboratory (West Grove, Pa.). Horseradish peroxidase-conjugated donkey […] serum was purchased from Santa Cruz Biotechnology. Immune complexes were visualized using enhanced chemiluminescence detection (Pierce Chemical Co., Rockford, Ill.). Fold differences in level of chemiluminescence were determined by densitometric analyses.

Cc1c(C)c2c(c(C)c1OCC(=O)O)CC[C@@](C)(CCC[C@H](C)CCC[C@H](C)CCCC(C)C)O2 [α-TEA]
peak TSP-1 mRNA levels, fold of VEH control (TSP-1; MCF-7 cells): 1.3 fold
peak TSP-1 protein levels, fold of VEH control (TSP-1; MCF-7 cells, 24 h): 2.4 fold
peak TSP-1 mRNA levels, fold of VEH control (TSP-1; MDA-MB-435 cells): 1.8 fold
peak TSP-1 protein levels, fold of VEH control (TSP-1; MDA-MB-435 cells, 15 h): 4.7 fold
decrease in percentage of apoptotic cells in cells expressing constitutively active Akt1 vs empty vector (LNCaP cells; 15 μM α-TEA): 21%
decrease in percentage of apoptotic cells in cells expressing constitutively active Akt1 vs empty vector (LNCaP cells; 20 μM α-TEA): 24%
decrease in percentage of apoptotic cells in cells expressing constitutively active Akt2 vs empty vector (LNCaP cells; 20 μM α-TEA): 10%
α-TEA-induced apoptosis on overexpression of wild type or constitutively active FOXO1 (LNCaP cells; 40 μM α-TEA 15 h, P<0.009): increased
PARP cleavage in comparison to empty vector control, cells overexpressing Flag-tagged wild type FOXO1 (PARP): 160%
PARP cleavage in comparison to empty vector control, cells overexpressing constitutively active Flag-FOXO1 AAA (PARP): 230%
